Results reported in patent publication US20040213743A1, “Sensorially active substances embedded in plastic” (priority 1996, published 2004).
Where two headings read alike, the source gives them in different places.

Key:
[1] = solubility in plastic and solvents; format: physicochemical; details: molten flexible PVC
[2] = cited from earlier work
rats = rats gnawing on denatonium benzoate-treated flexible PVC; format: in vivo
[3] = cited from earlier work; remark: listed apart in the source
[4] = approximately 0.2 grams of denatonium benzoate in 100 grams of clear flexible PVC

Structure (SMILES): CC[N+](CC)(CC(=O)Nc1c(C)cccc1C)Cc1ccccc1 [denatonium benzoate]
- solubility in polyvinyl chloride (PVC) [1]: readily dissolves
- solubility in polyvinyl chloride (PVC) ([1]; listed as Bitrex™): soluble in PVC
- skin irritation ([2]; at concentrations of 0.05%): does not irritate the skin
- skin irritation ([2]; even in fairly high concentrations): non-irritating to the skin
- deterrence of gnawing on the PVC (rats; [4]): does not deter rats from gnawing and eating the PVC
- effect on rats which ingest the treated PVC (rats; [4]): pronounced soporific effect
- deterrence of gnawing on the PVC (rats; approximately 2.5 grams of denatonium benzoate in 100 grams of clear flexible PVC, also when sample thoroughly washed): quite effective in discouraging rats from gnawing on the plastic
- solubility in organic solvents ([3]; benzene and chloroform): readily soluble
- solubility in ether ([3]; ether): nearly insoluble
